Numbered stars: 1 amine (or outer) side, 2 acyl side, 3 side chain; on linkers, the order of the positions; unused ones are H or OH. Bridge positions count the residues as written; N and C are the ends. Square brackets hold non-standard residues; d marks the D form. Ends that are not written are not given here. I, II: the chains in the order shown. βAsp = O=C(O)[C@H](CC(=O)[*:2])N[*:1]; Dap = NC[C@H](N)C(=O)O
What was measured:
[1] = biological target: T1, RXFP2 (Homo sapiens, UniProt Q8WXD0); experiment: RXFP2 competition binding assay with europium-labelled INSL3; parameters: expressed in transfected cells; host or cells: HEK-293T; settings: competition with 0.3 nM europium-labelled INSL3, unlabelled peptide 0.01 nM–1 μM; HEK-293T cells stably transfected with RXFP2; mean ± SEM; n in parentheses in Table 1 (6 for human INSL3, 3 for the analogues); read-out: Receptor binding pKi (converted)
[2] = biological target: T1, RXFP2; parameters: expressed in transfected cells; settings: data for entry 2 taken from the reference; n = 3; ref [32]; cited from earlier work
Excerpt: Table 1 Receptor binding affinities (pKi) of INSL3 and analogues. Data for entry 2 taken from reference. | column: Receptor binding pKi (n=) || Moreover, to date, there have been no reports of a chemical synthesis of a bis-lactam cross-linked heterodimeric peptide. Consequently, in this study, we undertook an examination of the feasibility of a total step-wise synthesis of, first, a monolactam A24-B22 analogue and, subsequently, a bis-lactam A11-B10/A24-B22 analogue of INSL3. Our novel strategy involved the continuous assembly of both the A- and B-chains, plus the lactam bridges on the same solid support, that is, without using preformed peptide fragments. In order to simplify assembly, the C-terminus of the A-chain was truncated at p ... || Both the ΔA25/26 human INSL3 monolactam A24-B22 and bis-lactam A11-B10/A24-B22 analogues were tested in the RXFP2 competition binding assay (Table 1).

T1 sequence (Q8WXD0 whole entry): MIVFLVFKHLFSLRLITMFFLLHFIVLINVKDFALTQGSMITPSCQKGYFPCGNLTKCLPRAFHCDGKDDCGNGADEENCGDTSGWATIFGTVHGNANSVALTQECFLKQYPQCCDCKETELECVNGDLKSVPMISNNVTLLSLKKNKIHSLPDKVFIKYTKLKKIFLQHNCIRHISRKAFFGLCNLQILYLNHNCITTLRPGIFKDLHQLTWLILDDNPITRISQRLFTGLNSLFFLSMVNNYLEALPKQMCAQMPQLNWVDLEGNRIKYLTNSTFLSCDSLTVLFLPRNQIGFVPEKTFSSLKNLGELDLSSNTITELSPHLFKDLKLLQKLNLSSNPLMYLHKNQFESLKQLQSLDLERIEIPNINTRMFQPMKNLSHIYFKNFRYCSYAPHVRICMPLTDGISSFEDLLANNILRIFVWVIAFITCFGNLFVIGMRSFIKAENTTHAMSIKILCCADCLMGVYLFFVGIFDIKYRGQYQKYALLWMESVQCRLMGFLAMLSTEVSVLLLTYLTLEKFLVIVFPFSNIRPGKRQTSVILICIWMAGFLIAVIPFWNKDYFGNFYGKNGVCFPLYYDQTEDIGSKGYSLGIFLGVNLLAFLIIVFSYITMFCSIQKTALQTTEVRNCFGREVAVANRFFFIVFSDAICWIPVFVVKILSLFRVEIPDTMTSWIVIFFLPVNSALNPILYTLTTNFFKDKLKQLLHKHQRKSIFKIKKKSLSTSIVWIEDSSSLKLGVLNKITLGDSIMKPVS

Ki [1]	Substance	Receptor binding pKi [2]
0.575 nM	I: PTPEMREKLCGHHFVRALVRVCGGPRWSTEA / II: AAATNPARYCCLSGCTQQDLLTLCPY (disulfide I:10-II:11, I:22-II:24, II:10-II:15) [Human INSL3]	
4.47 nM	I: PTPEMREKLCGHHFVRALVRV[Dap]GGPRWSTEA / II: AAATNPARYCCLSGCTQQDLLTL[βAsp] (disulfide I:10-II:11, II:10-II:15; amide I:22-II:C) [ΔA25/26 human INSL3 mono-lactam A24-B22]	
12 nM	I: PTPEMREKL[Dap]GHHFVRALVRV[Dap]GGPRWSTEA / II: AAATNPARYCDLSGCTQQDLLTL[βAsp] (amide I:10-II:11, I:22-II:C; disulfide II:10-II:15)	
	ΔA25/26 human INSL3: INSL3 analogue, C-terminus of the A-chain truncated at position 24, omitting Pro A25 and Tyr A26 (chain 1 AAATNPARYCCLSGCTQQDLLTLC; chain 2 PTPEMREKLCGHHFVRALVRVCGGPRWSTEA; Disulfides A10-A15 (intra-A), A11-B10 and A24-B22 (interchain); A-chain is A1-A24 (Pro A25 and Tyr A26 omitted); B-chain is 31 residues ending in Ala; Ch)	8.59 ± 0.06 (3)
